We go through 22 compounds from patent publication US12459922B2 (Gilead Sciences, Inc., priority 2022, dated 2025).

In assay [1] the test system is endogenous cellular STAT1 (phosphorylated at Tyr701) in NCI-H1373 cells. The assay can be described thus: Phospho-STAT1 (Tyr701) LANCE Ultra TR-FRET Detection Assay. Type of assay: cell-based. Conditions: Homo sapiens, NCI-H1373, 48 h, phospho-STAT1 (Tyr701) induction, read-out: NH1373 pSTAT1 EC50.
The target in another assay is T1, PARP7 (Homo sapiens, UniProt Q7Z3E1).
T1 sequence (Q7Z3E1 1-657): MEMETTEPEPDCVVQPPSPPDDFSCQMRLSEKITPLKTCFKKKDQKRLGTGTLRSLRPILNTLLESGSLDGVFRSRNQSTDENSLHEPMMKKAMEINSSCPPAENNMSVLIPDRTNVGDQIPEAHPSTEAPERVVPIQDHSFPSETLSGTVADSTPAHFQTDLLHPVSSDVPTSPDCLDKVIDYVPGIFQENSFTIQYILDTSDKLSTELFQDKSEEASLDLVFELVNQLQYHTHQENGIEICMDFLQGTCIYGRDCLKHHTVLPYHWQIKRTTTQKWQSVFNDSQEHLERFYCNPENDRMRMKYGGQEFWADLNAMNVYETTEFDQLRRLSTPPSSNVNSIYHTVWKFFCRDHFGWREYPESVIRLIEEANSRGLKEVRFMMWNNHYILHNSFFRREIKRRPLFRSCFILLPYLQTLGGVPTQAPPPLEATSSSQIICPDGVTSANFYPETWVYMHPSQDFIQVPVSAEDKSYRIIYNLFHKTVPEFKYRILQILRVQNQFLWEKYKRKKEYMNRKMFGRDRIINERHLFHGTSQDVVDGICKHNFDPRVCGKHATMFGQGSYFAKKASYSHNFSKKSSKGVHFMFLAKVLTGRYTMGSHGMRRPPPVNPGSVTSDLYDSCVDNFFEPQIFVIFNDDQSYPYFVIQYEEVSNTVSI
The assay can be described thus: Probe Displacement Assay for PARP7 (MSD electrochemiluminescent, biotinylated probe RBNO11147). The settings on record: displacement of biotinylated probe RBNO11147 from PARP7 NAD+-binding site; read-out: MSD ProbeDisp PARP7 IC50.

Experimental for PARP7: Displacement of a biotinylated probe (RBNO11147; Wigle et al., Cell Chemical Biology, 2020, pp. 877-887) from the PARP7 NAD+-binding site was measured in vitro using a Mesoscale Discovery electrochemiluminescent assay. […] Next, 10 ml of 10 nM PARP7 protein incubated for 1 hour at room temperature with a dose response curve of each test compound in a Greiner LDV polypropylene plate (#781201) is added to the MSD plate containing the immobilized probe. The interaction is allowed to reach equilibrium for 1.5 hours, and then 10 ml of SULFO-TAG labeled anti-GST antibody (Cat #R32AA-1) is added to each well and allowed to incubate for an additional 1.5 hours at room temperature. Finally, 10 ml of MSD read buffer T (4×, Cat. #R92C-1) is added to each well using a Bravo liquid handler to prevent air bubbles in the wells, and the plates are subsequently read in an MSD instrument. Light intensity is then measured to quantify the amount of PARP7 bound to the immobilized probe on the plate.

`C[C@@H](CCCn1ccc2cc(-c3ccc(C(F)F)cn3)c(F)cc2c1=O)Nc1cn[nH]c(=O)c1C(F)(F)F` [Example 33, 6-[5-(difluoromethyl)-2-pyridyl]-7-fluoro-2-[(4S)-4-[[6-oxo-5-(trifluoromethyl)-1H-pyridazin-4-yl]amino]pentyl]isoquinolin-1-one]: in assay [1], the concentration for a half-maximal effect (EC50) was found to be 168 nM. Further, at PARP7, the IC50 is 0.5 nM.

Regarding `C[C@@H](CCCn1cnc2cc(-c3ccc(F)cn3)c(F)cc2c1=O)Nc1cn[nH]c(=O)c1C(F)(F)F` [Example 59, (S)-6-fluoro-7-(5-fluoropyridin-2-yl)-3-(4-((6-oxo-5-(trifluoromethyl)-1,6-dihydropyridazin-4-yl)amino)pentyl)quinazolin-4(3H)-one], the EC50 in assay [1] stood at 386 nM. Besides, at PARP7, the concentration for half-maximal inhibition (IC50) amounted to 0.82 nM.

As for `C[C@@H](CCCn1ccc2cc(-c3cc(N)c(C(F)(F)F)cn3)c(F)cc2c1=O)Nc1cn[nH]c(=O)c1C(F)(F)F` [Example 49, 6-[4-amino-5-(trifluoromethyl)-2-pyridyl]-7-fluoro-2-[(4S)-4-[[6-oxo-5-(trifluoromethyl)-1H-pyridazin-4-yl]amino]pentyl]isoquinolin-1-one], the EC50 in assay [1] came to 54.1 nM. In addition, the IC50 on PARP7 stood at 0.413 nM.

As for `C[C@@H](CCCn1ccc2cc(-c3ccc(C(N)C(F)(F)F)cn3)c(F)cc2c1=O)Nc1cn[nH]c(=O)c1C(F)(F)F` (stereo partly drawn) [Example 50, 6-[5-(1-amino-2,2,2-trifluoro-ethyl)-2-pyridyl]-7-fluoro-2-[(4S)-4-[[6-oxo-5-(trifluoromethyl)-1H-pyridazin-4-yl]amino]pentyl]isoquinolin-1-one], the EC50 in assay [1] is 2760 nM. In addition, the IC50 on PARP7 is 2.13 nM.

On to `C[C@@H](CCCn1ccc2cc(-c3ccc(F)cn3)c(F)cc2c1=O)Nc1cn[nH]c(=O)c1C(F)(F)F` [Example 35, 7-fluoro-6-(5-fluoro-2-pyridyl)-2-[(4S)-4-[[6-oxo-5-(trifluoromethyl)-1H-pyridazin-4-yl]amino]pentyl]isoquinolin-1-one], for which the concentration giving a half-maximal response (EC50) in assay [1] stood at 436 nM. For the same compound, the 50% inhibitory concentration (IC50) at PARP7 is 0.5 nM.

For `C[C@@H](CCCn1ccc2cc(-c3ccc(OC(F)F)cn3)c(F)c(F)c2c1=O)Nc1cn[nH]c(=O)c1C(F)(F)F` [Example 57, (S)-6-(5-(difluoromethoxy)pyridin-2-yl)-7,8-difluoro-2-(4-((6-oxo-5-(trifluoromethyl)-1,6-dihydropyridazin-4-yl)amino)pentyl)isoquinolin-1(2H)-one], the EC50 in assay [1] worked out at 144 nM. The IC50 on PARP7 was determined as 0.613 nM.

Consider `C[C@@H](CCCn1cnc2cc(-c3ncc(C(F)(F)F)c(N4CC(C#N)C4)n3)c(F)cc2c1=O)Nc1cn[nH]c(=O)c1C(F)(F)F` [Example 206], for which the EC50 in assay [1] is 9.34 nM. At PARP7, the IC50 was 0.188 nM.

As to `C[C@@H](CCCn1ccc2nc(-c3ccc(C(F)(F)F)cn3)ccc2c1=O)Nc1cn[nH]c(=O)c1C(F)(F)F` [Example 14], in assay [1], the EC50 worked out at 94.3 nM. Further, at PARP7, the concentration for half-maximal inhibition (IC50) came to 0.5 nM.

In the case of `C[C@@H](CCCn1ncc2cc(-c3ncc(C(F)(F)F)cn3)ccc2c1=O)Nc1cn[nH]c(=O)c1C(F)(F)F` [Example 4, 2-[(4S)-4-[[6-oxo-5-(trifluoromethyl)-1H-pyridazin-4-yl]amino]pentyl]-6 [5-(trifluoromethyl)pyrimidin-2-yl]phthalazin-1-one], the concentration giving a half-maximal response (EC50) in assay [1] worked out at 95.6 nM. Moreover, the IC50 on PARP7 came out at 0.2 nM.

With `C[C@@H](CCCn1ccc2cc(-c3ncc(F)cn3)c(F)c(F)c2c1=O)Nc1cn[nH]c(=O)c1C(F)(F)F` [Example 54, (S)-7,8-difluoro-6-(5-fluoropyrimidin-2-yl)-2-(4-((6-oxo-5-(trifluoromethyl)-1,6-dihydropyridazin-4-yl)amino)pentyl)isoquinolin-1(2H)-one], the concentration for a half-maximal effect (EC50) in assay [1] was 156 nM. Besides, at PARP7, the IC50 amounted to 0.685 nM.

Regarding `CC[C@@H](CCCn1ccc2cc(-c3ncc(Cl)c(N)n3)c(F)cc2c1=O)Nc1cn[nH]c(=O)c1C(F)(F)F` [Example 303, (S)-6-(4-amino-5-chloropyrimidin-2-yl)-7-fluoro-2-(4-((6-oxo-5-(trifluoromethyl)-1,6-dihydropyridazin-4-yl)amino)hexyl)isoquinolin-1(2H)-one], the EC50 in assay [1] is 3.43 nM. For the same compound, on PARP7, the IC50 is 0.273 nM.

On to `C[C@@H](CCCn1ccc2cc(-c3nc(C(F)F)cs3)c(F)cc2c1=O)Nc1cn[nH]c(=O)c1C(F)(F)F` [Example 301, (S)-6-(4-(difluoromethyl)thiazol-2-yl)-7-fluoro-2-(4-((6-oxo-5-(trifluoromethyl)-1,6-dihydropyridazin-4-yl)amino)pentyl)isoquinolin-1(2H)-one], for which the EC50 in assay [1] worked out at 549 nM. The half-inhibitory concentration (IC50) on PARP7 was 0.508 nM.

As to `CC(=O)c1c(N[C@@H](C)CCCn2ccc3cc(-c4ncc(C(F)(F)F)cn4)ccc3c2=O)cn[nH]c1=O` [Example 15, 2-[(4S)-4-[(5-acetyl-6-oxo-1H-pyridazin-4-yl)amino]pentyl]-6-[5-(trifluoromethyl)pyrimidin-2-yl]isoquinolin-1-one], the EC50 in assay [1] stood at 576 nM. Also, the 50% inhibitory concentration (IC50) on PARP7 was 0.3 nM.

Turning to `C[C@@H](CCCn1ccc2cc(-c3ncc(C(F)F)c(N)n3)c(F)cc2c1=O)Nc1cn[nH]c(=O)c1C(F)(F)F` [Example 104, 6-[4-amino-5-(difluoromethyl)pyrimidin-2-yl]-7-fluoro-2-[(4S)-4-[[6-oxo-5-(trifluoromethyl)-1H-pyridazin-4-yl]amino]pentyl]isoquinolin-1-one], the EC50 in assay [1] was found to be 4.6 nM. The IC50 on PARP7 was determined as 0.33 nM.

In the case of `O=c1[nH]ncc(N[C@H](CCCn2ccc3cc(-c4ncc(Cl)cn4)c(F)cc3c2=O)COC(F)F)c1C(F)(F)F` [Example 381, (R)-6-(5-chloropyrimidin-2-yl)-2-(5-(difluoromethoxy)-4-((6-oxo-5-(trifluoromethyl)-1,6-dihydropyridazin-4-yl)amino)pentyl)-7-fluoroisoquinolin-1(2H)-one], the concentration for a half-maximal effect (EC50) in assay [1] came out at 0.885 nM. Further, the IC50 at PARP7 worked out at 0.28 nM.

For the compound `C[C@@H](CCCn1ccc2cc(-c3ncc(C(F)(F)F)cn3)ccc2c1=O)Nc1cn[nH]c(=O)c1C(F)(F)F` [Example 5, 2-[(4S)-4-[[6-oxo-5-(trifluoromethyl)-1H-pyridazin-4-yl]amino]pentyl]-6-[5-(trifluoromethyl)pyrimidin-2-yl]isoquinolin-1-one], the EC50 in assay [1] came out at 143 nM. Moreover, the IC50 on PARP7 is 0.3 nM.

As for `C[C@@H](CCCn1ccc2cc(-c3ncc(C(F)(F)F)c(N4C[C@@H](O)[C@@H]4C)n3)c(F)cc2c1=O)Nc1cn[nH]c(=O)c1C(F)(F)F` [Example 311, 7-fluoro-6-(4-((2S,3R)-3-hydroxy-2-methylazetidin-1-yl)-5-(trifluoromethyl)pyrimidin-2-yl)-2-((S)-4-((6-oxo-5-(trifluoromethyl)-1,6-dihydropyridazin-4-yl)amino)pentyl)isoquinolin-1(2H)-one], in assay [1], the EC50 amounted to 14 nM. Further, at PARP7, the 50% inhibitory concentration (IC50) was found to be 0.258 nM.

Turning to `C[C@@H](CCCn1ccc2cc(-c3ccc(C(F)(F)F)cn3)c(F)c(F)c2c1=O)Nc1cn[nH]c(=O)c1C(F)(F)F` [Example 55, (S)-7,8-difluoro-2-(4-((6-oxo-5-(trifluoromethyl)-1,6-dihydropyridazin-4-yl)amino)pentyl)-6-(5-(trifluoromethyl)pyridin-2-yl)isoquinolin-1(2H)-one], in assay [1], the EC50 was 39.1 nM. In addition, at PARP7, the IC50 is 0.692 nM.

As for `C[C@@H](CCCn1ccc2cc(-c3ncc4cn[nH]c4n3)c(F)cc2c1=O)Nc1cn[nH]c(=O)c1C(F)(F)F` [Example 299, (S)-7-fluoro-2-(4-((6-oxo-5-(trifluoromethyl)-1,6-dihydropyridazin-4-yl)amino)pentyl)-6-(1H-pyrazolo[3,4-d]pyrimidin-6-yl)isoquinolin-1(2H)-one], the concentration for a half-maximal effect (EC50) in assay [1] came out at 31 nM. Moreover, on PARP7, the IC50 is 0.221 nM.

Regarding `C[C@@H](CCCn1ccc2cc(-c3ccc(C(F)(F)F)cn3)cc(F)c2c1=O)Nc1cn[nH]c(=O)c1C(F)(F)F` [Example 11, 8-fluoro-2-[(4S)-4-[[6-oxo-5-(trifluoromethyl)-1H-pyridazin-4-yl]amino]pentyl]-6-[5-(trifluoromethyl)-2-pyridyl]isoquinolin-1-one], in assay [1], the EC50 amounted to 32.4 nM. For the same compound, the IC50 on PARP7 was 0.2 nM.

In the case of `C[C@@H](CCCn1ccc2cc(-c3nc4ccccc4o3)c(F)cc2c1=O)Nc1cn[nH]c(=O)c1C(F)(F)F` [Example 307, (S)-6-(benzo[d]oxazol-2-yl)-7-fluoro-2-(4-((6-oxo-5-(trifluoromethyl)-1,6-dihydropyridazin-4-yl)amino)pentyl)isoquinolin-1(2H)-one], in assay [1], the EC50 amounted to 11.2 nM. In addition, at PARP7, the IC50 was found to be 0.352 nM.

For `O=c1[nH]ncc(N[C@H](CCCn2ccc3cc(-c4ncc(C(F)(F)F)cn4)c(F)cc3c2=O)C2CC2)c1C(F)(F)F` [Example 36, 2-[(4R)-4-cyclopropyl-4-[[6-oxo-5-(trifluoromethyl)-1H-pyridazin-4-yl]amino]butyl]-7-fluoro-6-[5-(trifluoromethyl)pyrimidin-2-yl]isoquinolin-1-one], the half-maximal effective concentration (EC50) in assay [1] came to 74.1 nM. Besides, the half-inhibitory concentration (IC50) at PARP7 came out at 0.7 nM.
